# Assay results taken from patent US8957087B2, “Heterocyclic substituted acardite derivate and application thereof” (Jiangsu Provincial Institute of Materia Medica Co., Ltd., priority 2009, dated 2015).
# Tests used:
# Raf-1(truncated) = experiment: Raf-1 inhibitor screening by chemoluminescence method; type: biochemical; conditions: Final concentration 1 x 1.0*10^−5 mol/ml
# Excerpt: 1. Inhibitory activity of the compound of the present invention on raf kinase
# Raf-1 inhibitor screening by chemoluminescence method
# Westernblot electrophoresis apparatus Rotaryshaker
# Raf-1(truncated), Magnesium/ATP Cocktail, MEK1 unactive
# [1] = system: human lung cancer cell strain A549; experiment: MTT assay, inhibition of growth of human lung cancer cell strain A549; type: cell-based; conditions: Final concentration 1 x 1.0*10^(−5) mol/L
# Experimental: 4. Using 3-(4,5-dimethylthiazol-2-yl)-2,5-diphenyl tetrazolium bromide assay (MTT) to detect the inhibition effects on the growth of human lung cancer cell strain A549
# [Test materials] MTT working solution, F12 medium containing 10% FBS, continuous injectors
# (§1) [Tested compound] Compounds 1-38
# (§2) [Positive control medicine] Sorafenib, compounds A′, B′, C′ with no substituent or only amino formyl in A ring
# The inhibition rate is calculated as follows:
# (§3) Relative OD value of conrol well=OD value of control well−OD value of blank well
# (§4) Relative OD value of drug well=OD value of drug well−OD value of blank well
# [2] = system: human high-metastic lung cancer cell 95D; experiment: Inhibition of human high-metastic lung cancer cell 95D migration (Boyden Chamber Transwell); type: cell-based; conditions: Final concentration 1 x 1.0*10^(−5) mol/L
# Experimental: 5 Inhibition effects of compounds on human high-metastic lung cancer cell 95D migration
# [Test materials] Boyden Chamber Transwell chamber (with pore size of 8 μm), human high-metastic lung cancer cell 95D cell strain, 1640 medium containing 10% FBS, 1640 medium containing no serum
# as §1, §2
# (§5) The inhibition rate is calculated as follows: […]
# lung cancer cell A549 = experiment: Effects on the adhesive ability of lung cancer cell A549; type: cell-based, human; conditions: Final concentration 1 x 1.0*10^(−5) mol/L
# Experimental: 6. Effects of tested compounds on the adhesive ability of lung cancer cell A549
# [Test materials] gelatin, CCK8, poly-lysine (PLL), A549 cell stains, 1640 medium containing 10% FBS
# (§6) [Tested compound] Compounds 1-38 to be tested
# as §2, §5
# Dosing dosing cells without cell group (gelatin adhesive OD/PLL adhesion OD)−Dosing cell group (gelatin adhesive OD/PLL adhesion OD value)
# Dosing dosing cells without cell group (gelatin adhesive OD/PLL adhesion OD value)
# [3] = system: human umbilical vein endothelial cell HUVEC; experiment: Growth of human umbilical vein endothelial cell HUVEC by CCK8 method; type: cell-based; conditions: Final concentration 1 x 1.0*10^(−5) mol/L
# Excerpt: 7. Effects of tested compounds on the growth of human umbilical vein endothelial cell HUVEC cell by CCK8 method
# [Test materials] CCK8, human umbilical vein endothelial cell HUVEC cell, 1640 medium containing 10% FBS
# as §6, §2, §3, §4
# [4] = system: human umbilical vein endothelial cell HUVEC; experiment: Lumen formation ability of HUVEC (Matrigel method); type: cell-based; conditions: Final concentration 1 x 1.0*10^(−5) mol/L
# Excerpt: 8. Inhibition effects of compounds on the lumen formation ability of human umbilical vein endothelial cell HUVEC
# [Experimental principles] The human umbilical vein endothelial cells have ability of spontaneously forming blood lumen on Matrigel, which can be used to simulate the process of angiogenesis in vivo. We used Matrigel method to investigate the effects of the compound on the lumen formation ability of human umbilical vein endothelial cell HUVEC.
# [Test materials] HUVEC (taking generation 3 to 5 cells for experiments after obtained from primary separation and cultured at 37 under the conditions of 5% CO2), Matrigel, cell culture medium M199.
# as §1, §2, §5
# [5] = system: human lung cancer A549 transplantation tumor; type: in vivo; conditions: BALB/cA nude mice; 60 mg/kg, 6 times every week for 3 weeks; Sorafenib oral 60 mg/kg
# Experimental: 9. Tumor inhibition rate of tested compounds on human lung cancer A549 cell transplantation model in nude mice
# (§7) [Test animals] female BALB/cA nude mice, 35-40 days old, with weight of 18-22g. There were 12 mice in the negative conrol group and 6 mice in the treatment group.
# (§8) The dosage of the compound was 60 mg/kg, 6 times every week for 3 weeks. […] Equal amount of normal saline was administrated in the negative control group. Observe for one week after administration.
# [6] = system: human liver cancer cell bel-7402 transplantation tumor; type: in vivo; conditions: BALB/cA nude mice; 60 mg/kg, 6 times every week for 3 weeks; Sorafenib oral 60 mg/kg
# Experimental: 10. Tumor inhibition rate of tested compounds on human liver cancer cell bel-7402 transplantation tumor model in nude mice
# as §7, §8
# [7] = system: renal carcinoma cell line GCR-1 transplanted tumor; type: in vivo, BALB/cA nude mice; conditions: BALB/cA nude mice; 60 mg/kg, 6 times every week for 3 weeks; Sorafenib oral 60 mg/kg
# Experimental: 11. Tumor inhibition rate of medicines on renal carcinoma cell line GCR-1 transplanted tumor model in nude mice
# as §7
# [Test method] […] The dosage of the medicine was 60 mg/kg, 6 times every week for 3 weeks. […] Equal amount of normal saline was administrated in the negative control group. Observe for one week after administration.
# mice S180 sarcoma = experiment: Experimental therapeutic action on S180 sarcoma mice; conditions: mice S180 sarcoma, 60 mg/kg orally for 9 days
# [8] = system: Human colon cancer HT-29 transplantable tumor; experiment: Human colon cancer HT-29 transplantable tumor in nude mice; conditions: HT-29 in nude mice, 60 mg/kg ig 9 times
Compound,Inhibition rate % on raf kinase (Raf-1(truncated)),"Inhibition rate, growth of human lung cancer cell A549 [1]","Inhibition rate, 95D cell strain migration [2]","Inhibition rate, adhesion ability of human lung cancer cell A549 (lung cancer cell A549)","Inhibition rate, growth of HUVEC cell [3]","Inhibition rate, lumen formation ability of HUVEC [4]",Relative tumor reproduction rate T/C (%) on human lung cancer A549 transplantation tumor in nude mice [5],Relative tumor reproduction rate T/C (%) on human liver cancer cell bel-7402 transplantation tumor model in nude mice [6],Relative tumor reproduction rate T/C (%) on human renal carcinoma GCR-1 cell transplanted tumor model in nude mice [7],Tumor growth inhibition rate (%) (mice S180 sarcoma),Relative tumor reproduction rate T/C (%) [8]
"CNC(=O)c1ncc(Oc2ccc(NC(=O)Nc3ccc(Br)c(C(F)(F)F)c3)cc2)c(OC)n1 [Compound 9, N-(4-bromo-3-(trifluoromethyl)phenyl)-N′-(4-(2-(N-methylaminoformoxyl)-5-(4-methoxypyrimidinyl)oxy)phenyl)urea]",99.2%,61.54%,91.42%,85.32%,11.54%,91.45%,38.7%,36.8%,28.3%,55.9%,35.2%
"CNC(=O)c1ncc(Oc2ccc(NC(=O)Nc3ccc(F)c(C(F)(F)F)c3)cc2)c2ccc(N)cc12 [Compound 11, N-(4-fluoro-3-(trifluoromethyl)phenyl)-N′-(4-(2-(N-methylaminoformoxyl)-4-(7-amino-isoquinolyl)oxy)phenyl)urea]",11.2%,69.20%,78.66%,59.63%,29.20%,79.63%,43.7%,23.7%,32.1%,54.2%,81.2%
"CNC(=O)c1ncc(Oc2ccc(NC(=O)Nc3ccc(Br)c(C(F)(F)F)c3)cc2)c2ccc(N)cc12 [Compound 12, N-(4-bromo-3-(trifluoromethyl)phenyl)-N′-(4-(2-(N-methylaminoformoxyl)-4-(7-amino-isoquinolyl)oxy)phenyl)urea]",12.1%,42.31%,66.79%,62.30%,12.31%,52.37%,36.3%,31.6%,20.5%,45.7%,80.5%
"CNC(=O)c1cc(Oc2ccc(NC(=O)Nc3ccc(Cl)c(C(F)(F)F)c3)cc2)c(C)[nH]1 [Compound 13, N-(4-chloro-3-(trifluoromethyl)phenyl)-N′-(4-(2-(N-methylaminoformoxyl)-4-(5-methyl-pyrryl)oxy)phenyl)urea]",55.0%,64.23%,65.45%,63.39%,24.23%,53.36%,38.4%,29.8%,28.3%,21.2%,81.2%
"CNC(=O)c1cc(Oc2ccc(NC(=O)Nc3ccc(F)c(C(F)(F)F)c3)cc2)c(C)[nH]1 [Compound 14, N-(4-fluoro-3-(trifluoromethyl)phenyl)-N′-(4-(2-(N-methylaminoformoxyl)-4-(5-methyl-pyrryl)oxy)phenyl)urea]",41.3%,67.25%,57.57%,67.51%,17.25%,67.53%,32.2%,36.1%,31.1%,18.2%,40.1%
"CNC(=O)c1cc(Oc2ccc(NC(=O)Nc3ccc(Br)c(C(F)(F)F)c3)cc2)c(C)[nH]1 [Compound 15, N-(4-bromo-3-(trifluoromethyl)phenyl)-N′-(4-(2-(N-methylaminoformoxyl)-4-(5-methyl-pyrryl)oxy)phenyl)urea]",35.5%,72.17%,63.68%,68.63%,38.17%,68.64%,38.7%,33.6%,22.5%,56.7%,85.2%
COc1ccc2nccc(Oc3ccc(NC(=O)Nc4ccc(Cl)c(C(F)(F)F)c4)cc3)c2c1 [Compound 16],62.1%,89.71%,89.31%,90.77%,10.71%,80.79%,9.9%,14.9%,9.9%,33.6%,55.2%
COc1ccc2nccc(Oc3ccc(NC(=O)Nc4ccc(F)c(C(F)(F)F)c4)cc3)c2c1 [Compound 17],58.2%,88.52%,90.52%,97.50%,13.52%,67.50%,7.3%,12.5%,11.1%,44.2%,54.7%
COc1ccc2nccc(Oc3ccc(NC(=O)Nc4ccc(Br)c(C(F)(F)F)c4)cc3)c2c1 [Compound 18],34.4%,90.71%,93.73%,93.72%,5.71%,63.71%,12.5%,12.7%,12.3%,35.7%,40.2%
